Earlier results in EP4817601A1, “NANOPARTICLES COMPRISING SIROLIMUS AND ALBUMIN, PHARMACEUTICAL COMPOSITION FOR SUBCUTANEOUS ADMINISTRATION, COMPRISING SAME, AND PREPARATION METHOD THEREFOR” (SNBioscience Inc., priority 2023, dated 2025).

Settings: poorly soluble drug; background statement

bioavailability (BA): 14%
SMILES: CO[C@H]1C[C@@H]2CC[C@@H](C)[C@@](O)(O2)C(=O)C(=O)N2CCCC[C@H]2C(=O)O[C@H]([C@H](C)C[C@@H]2CC[C@@H](O)[C@H](OC)C2)CC(=O)[C@H](C)/C=C(\C)[C@@H](O)[C@@H](OC)C(=O)[C@H](C)C[C@H](C)/C=C/C=C/C=C/1C [Sirolimus]
